Test results published in publication PMC11570312, “Development, optimization, and characterization of polymeric micelles to improve dasatinib oral bioavailability: Hep G2 cell cytotoxicity and in vivo pharmacokinetics for targeted liver cancer therapy” (Heliyon, 2024).

Assays:
[1] = tested on: HepG2 cells; assay: Cellular uptake (fluorescence microscopy, flow cytometry); format: cell-based, human; conditions: HepG2, 50 and 100 μg/mL DAS, 1 and 4 h
Procedure: The cellular uptake of DAS polymeric micelles was evaluated by examining the uptake of DAS by HepG2, hepatocellular carcinoma, and murine melanoma cells after exposure to free DAS and DAS-PMs micelles. Cells were visualized under a fluorescence microscope, and the DAS fluorescence intensity in treated cells was measured using flow cytometry. Fluorescent micrographs depicted HepG2 cells that had been treated with free DAS and DAS-PMs for durations of 0, 1, and 4 h. […] This rise was in comparison to the control group. However, DAS-PMs may quickly accumulate in HepG2 cells, as indicated by the vivid green fluorescence—even just 1 h after. When cells were treated with DAS-PMs for 4 h, the fluorescence intensity increased much more than after 1 h. At the 1- and 4-h time points, the fluorescence intensity in cells treated with 100 μg/mL of DAS in DAS-PMs was considerably higher than that in cells treated with 50 μg/mL of DAS. The dose- and time-dependent rise in fluorescence intensity was quantitatively evaluated using flow cytometry on HepG2 cell lines, as illustrated in Fig. 12.

[2] = MTT/SRB cytotoxicity assay; format: cell-based; conditions: human, HepG2 cells; HepG2, after 48 h
Procedure: The MTT assay was performed to assess the cytotoxicity of the samples on the HepG2 cell line. Approximately 8000 cells per well were cultured in a 96-well plate for 24 h at 37 °C with 5 % CO2 in DMEM medium supplemented with 10 % FBS and 1 % antibiotic solution. The following day, cells were exposed to various dosages and concentrations ranging from 1 to 2500 μM, prepared using incomplete medium to achieve the desired concentrations. After a 24-h incubation period, 100 μL of 10 % trichloroacetic acid (TCA) was added to each well and incubated for 1 h. Then, the plate was washed with distilled water and allowed to dry at room temperature. MTT solution was added to each well at a final concentration of 0.04 % and was allowed to sit for 1 h. After an hour of incubation, the plate was air-dried at room temperature before being cleaned with 1 % (v/v) acetic acid to remove any remaining color. To solubilize the protein-bound dye, Tris base solution (pH = 10.5) was added to a well and shaken for 10 min on an orbital shaker. The protein-bound dye was then detected at 510 nm using an ELISA plate reader (iMark, Biorad, USA).
The cytotoxicity of the samples was evaluated using the HepG2 cell line, obtained from NCCS Pune, through the MTT assay. […] The results were measured at 540 nm and 660 nm using a Bio-Rad ELISA plate reader (USA). The IC50 value was calculated using GraphPad Prism 9 software. […]

[3] = tested on: HepG2 liver cell lines; assay: In-vitro scratch assay; format: cell-based, human; conditions: HepG2, after 48 h of treatment
Excerpt: The aim of the in-vitro scratch test is to assess how effectively cancer cell growth is curbed.

[4] = tested on: HepG2 cell lines; assay: Cellular apoptosis with flow cytometry (Annexin V-FITC/PI); format: cell-based, human; conditions: HepG2, IC50 dose
Procedure: HepG2 cell lines, obtained from NCCS Pune, were cultured and treated with the compound's IC-50 dosage. Post-treatment, the cells were divided into five groups: unstained cells, control group, annexin-only, PI-only, and treatment. The cells were then resuspended in 1X binding buffer at a concentration of 1 × 10^6 cells/mL. FITC and PI from Annexin V were added to the appropriately labeled tubes. According to Zhan et al., 1X binding buffer was added to each tube, and they were incubated for 15 min at room temperature. The samples were analyzed using a BD FACS Lyric™ flow cytometer within an hour.

[5] = In vitro release of dasatinib (dialysis bag); format: physicochemical; conditions: 12 h, pH 7.4, 37 °C
Procedure: To imitate the journey of polymeric micelles through the gastrointestinal tract, an in vitro drug release test was conducted. To simulate drug release from polymeric micelles, a release test was conducted using a phosphate buffer solution at pH 7.4 over 12 h, starting at the 0.5-h mark. The pH of human blood and most bodily tissues is roughly 7.4. Performing the release research at this pH allows us to forecast how dasatinib will behave once taken into the bloodstream and dispersed throughout the body. […] This information aids in evaluating how much of the drug can reach the systemic circulation for therapeutic activity. Each test was performed in a medium containing 0.5 % w/v Tween 20 to maintain sink conditions. A dialysis bag containing 1 mL of a freshly prepared dispersion of dasatinib-loaded micelles was sealed with clips and placed into a glass container filled with 90 mL of […]. This setup was incubated in a water bath set at 37 °C with agitation at 150 rotations per minute. At specified time intervals ([…]), 5 mL samples of the release medium were withdrawn and replaced with fresh medium to maintain volume consistency. The amount of drug released was measured by analyzing the UV absorbance of the samples at 323 nm. A standard curve for […] in each medium was used for the quantification. […]

[6] = tested on: HepG2 cells; assay: Cell cycle analysis with flow cytometry; format: cell-based, human; conditions: HepG2, 24 h at IC50
Procedure: Specimens were placed on cells and incubated for 24 h. The cells that were not subjected to any treatment were the control cells. After the set incubation duration, trypsin was applied to detach the cells. Subsequently, the cells were gathered in a 1.5-mL vial and rinsed with 500 μL of chilled PBS [39]. A suspension of approximately 10^6 cells was prepared by gently vortexing 100 μL of PBS, resulting in a monodispersed cell suspension with minimal aggregation. The cells were then fixed by adding this solution to centrifuge tubes containing 900 μL of 70 % ethanol on ice, followed by incubation at 4 °C for at least 2 h. Cells can be stored in 70 % ethanol at 4 °C for several weeks. According to Sun et al. after centrifugation post-fixation, the cell pellet was resuspended in 500 μL of Propidium Iodide (PI) staining solution (0.1 % (v/v) Triton X-100, 10 μg/mL PI, and 100 μg/mL DNase-free RNaseA in PBS). The mixture was incubated in the dark for 30 min at room temperature or 10 min at 37 °C. Finally, samples were analyzed using a flow cytometer.

[7] = tested on: HepG2 cells; assay: ROS estimation with flow cytometry (DCFDA); format: cell-based, human; conditions: HepG2, 24 h, Control 1 %
Procedure: Cells were seeded into six-well plates at densities ranging from 5000 to 10,000 HepG2 cells per well, using 1 mL of DMEM media supplemented with 10 % FBS and 1 % antibiotic solution. The plates were then incubated at 37 °C with 5 % CO2 for 24 h. Prior to treatment, the old culture medium was replaced with fresh medium, designating untreated cells as controls. Following the protocol by Gupta et al. cells were treated with various agents and further incubated for 24 h. After incubation, the medium was removed, and cells were detached using trypsin-EDTA, transferred to 1.5 mL tubes, and washed with 500 μl of cold PBS. The cell pellet was resuspended in 100 μl of PBS containing 2 μM DCFDA, and samples were incubated for 1 h before analysis using a BD FACS Calibur flow cytometer (USA). Data were processed using version 2.5.1 of the Flowing software program.

[8] = In vivo pharmacokinetics; design: species or system Male Wistar rats; conditions: male, Wistar; for Cmax / Tmax: rat plasma
Procedure: Male Wistar rats, each weighing 200 ± 10 g, were obtained from the Experimental Animal Centre at NMIMS University. The study was conducted in accordance with the guidelines approved by the NMIMS University Animal Experimental Ethics Committee (protocol number SPTM/09/2023/IAEC/05). […] The total dose of DAS in two group was 5 mg/kg via intravenous. Blood samples (0.4 mL) were collected from the rats via intravenous injection at specified time intervals (0.5, 1, 2, 3, 4, 5, 6, 8, 10, and 12 h) and were immediately transferred into heparinized tubes. The samples were centrifuged at 12,000 rpm for 10 min to separate the plasma, which was then stored at −20 °C until analysis. The plasma samples were subsequently subjected to high-performance liquid chromatography (HPLC) to determine the concentration of dasatinib. The blood extraction process was conducted as follows: Initially, 15 μL of an internal standard solution (methanol, 10 μg/mL) was added to each tube containing 0.4 mL of blood, followed by vortexing for 1 min. Subsequently, 1 mL of acetonitrile was added, and the mixture was vortexed for an additional minute. The samples were then centrifuged at 12,000 rpm for 10 min. After centrifugation, the organic layer was carefully transferred to a sterile tube and evaporated under a gentle nitrogen stream. The dried extracts were reconstituted in 0.4 mL of a methanol/water solution (70/30, v/v) before undergoing high-performance liquid chromatography (HPLC) analysis. The pharmacokinetic parameters were calculated using the DAS 2.1.1 software (Shanghai, China).

[9] = plasma, rat, 5 mg/kg via intravenous

drug released [5]: 40%
Cmax ([8]; intravenous, 5 mg/kg): 12330 ± 60 ng/mL
Tmax ([8]; intravenous, 5 mg/kg): 2 h
MRT [8, 9]: 3.3 h
half-life [8, 9]: 245 ± 47.1 min
Cmax ([8]; 5 mg/kg via intravenous): 12300 ± 2310 ng/mL
Tmax ([8]; 5 mg/kg via intravenous): 2 h
Structure (SMILES): Cc1nc(Nc2ncc(C(=O)Nc3c(C)cccc3Cl)s2)cc(N2CCN(CCO)CC2)n1 [DAS, dasatinib]
fluorescence intensity (cellular uptake) [1]: slight rise in fluorescence intensity
viability at 48 h [2]: 12.2 ± 0.63%
cell migration (scratch wound) [3]: curbed cell migration
early apoptotic cells ([4]; control 3.38 %): 0.6%
necrotic cells ([4]; control 13.28 %): 18.1%
late apoptotic cells ([4]; control 19.56 %): 72.4%
percentage of cells in G2 phase ([6]; control 18.14 %): 11.94%
percentage of cells in S phase ([6]; control 20.04 %): 14.22%
percentage of cells in G1 phase ([6]; control 58.18 %): 67.14%
ROS, MFI-positive cells [7]: 3.09%
